Data: ChEMBL document CHEMBL4800723, “Data for DCP probe BI-1942” (2021)
Activity calls are given as the source filed them. No cut-off for these calls is given here.

Key:
Caspase-1 (Homo sapiens) = Caspase-1 (Homo sapiens) (UniProt P29466); assay: CASPASE-1(H) Eurofins SafetyScreen44 (BI); settings: Compound concentration 10.0 uM
[1] = target: Muscarinic acetylcholine receptor M2 (Homo sapiens) (UniProt P08172); assay: M2/H Eurofins SafetyScreen44 (BI); settings: filed as antagonist, Compound concentration 10.0 uM
Sequence of Muscarinic acetylcholine receptor M2 (Homo sapiens) (P08172 whole entry): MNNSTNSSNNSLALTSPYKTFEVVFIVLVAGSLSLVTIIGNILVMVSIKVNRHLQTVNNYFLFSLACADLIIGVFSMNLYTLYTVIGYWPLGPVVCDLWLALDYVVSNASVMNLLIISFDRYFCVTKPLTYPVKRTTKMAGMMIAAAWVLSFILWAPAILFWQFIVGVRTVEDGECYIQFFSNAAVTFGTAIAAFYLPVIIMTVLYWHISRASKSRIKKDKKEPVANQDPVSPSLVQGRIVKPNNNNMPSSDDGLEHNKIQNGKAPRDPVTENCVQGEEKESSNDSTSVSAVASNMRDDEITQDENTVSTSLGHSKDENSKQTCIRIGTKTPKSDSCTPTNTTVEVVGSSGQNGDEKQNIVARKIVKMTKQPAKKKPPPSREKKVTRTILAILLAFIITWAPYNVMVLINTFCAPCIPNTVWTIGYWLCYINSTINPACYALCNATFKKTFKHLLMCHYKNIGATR

[2] = target: Angiotensin-converting enzyme (Homo sapiens) (UniProt P12821); assay: ACE(HU_AMTCH400) Eurofins SafetyScreen44 (BI); settings: Compound concentration 10.0 uM
Sequence of Angiotensin-converting enzyme (Homo sapiens) (P12821 whole entry): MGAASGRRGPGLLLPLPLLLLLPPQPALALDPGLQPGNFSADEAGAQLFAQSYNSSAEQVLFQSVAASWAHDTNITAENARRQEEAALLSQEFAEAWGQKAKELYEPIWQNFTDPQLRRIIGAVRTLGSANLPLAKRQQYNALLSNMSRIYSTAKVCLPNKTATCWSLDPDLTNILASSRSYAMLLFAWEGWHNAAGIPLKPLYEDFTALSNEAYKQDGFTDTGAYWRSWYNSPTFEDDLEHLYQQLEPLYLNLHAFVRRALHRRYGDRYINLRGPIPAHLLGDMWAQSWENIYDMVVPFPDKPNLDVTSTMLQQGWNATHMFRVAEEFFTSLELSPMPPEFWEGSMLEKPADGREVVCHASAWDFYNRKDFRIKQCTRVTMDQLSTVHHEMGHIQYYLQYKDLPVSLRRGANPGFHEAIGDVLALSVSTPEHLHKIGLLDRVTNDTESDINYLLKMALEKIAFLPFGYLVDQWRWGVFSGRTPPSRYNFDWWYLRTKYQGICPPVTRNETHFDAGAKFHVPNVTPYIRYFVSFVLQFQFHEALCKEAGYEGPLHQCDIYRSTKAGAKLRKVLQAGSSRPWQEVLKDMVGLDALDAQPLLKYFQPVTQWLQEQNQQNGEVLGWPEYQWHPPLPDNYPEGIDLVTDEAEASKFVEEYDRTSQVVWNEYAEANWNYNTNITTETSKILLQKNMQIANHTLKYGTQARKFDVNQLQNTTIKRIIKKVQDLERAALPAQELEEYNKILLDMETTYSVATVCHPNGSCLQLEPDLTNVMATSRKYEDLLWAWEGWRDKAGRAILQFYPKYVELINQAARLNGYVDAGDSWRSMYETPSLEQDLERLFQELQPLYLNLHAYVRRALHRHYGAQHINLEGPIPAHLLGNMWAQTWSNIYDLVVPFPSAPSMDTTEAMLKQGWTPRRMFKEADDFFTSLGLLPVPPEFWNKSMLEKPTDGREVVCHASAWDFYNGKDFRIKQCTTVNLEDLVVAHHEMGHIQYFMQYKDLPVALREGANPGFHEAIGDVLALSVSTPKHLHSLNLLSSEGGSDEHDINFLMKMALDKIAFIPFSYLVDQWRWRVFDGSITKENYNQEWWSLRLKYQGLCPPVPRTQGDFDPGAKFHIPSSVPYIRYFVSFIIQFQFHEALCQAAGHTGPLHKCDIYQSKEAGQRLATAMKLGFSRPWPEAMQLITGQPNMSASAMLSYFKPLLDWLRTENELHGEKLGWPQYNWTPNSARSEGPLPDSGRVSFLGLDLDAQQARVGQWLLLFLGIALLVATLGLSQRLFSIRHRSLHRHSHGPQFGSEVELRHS

[3] = target: Endothelin-converting enzyme 1 (Homo sapiens) (UniProt P42892); assay: ECE(H) Eurofins SafetyScreen44 (BI); settings: Compound concentration 10.0 uM
[4] = target: Matrix metalloproteinase-9 (Homo sapiens) (UniProt P14780); assay: MMP-9 (H) Eurofins SafetyScreen44 (BI); settings: Compound concentration 10.0 uM
Sequence of Matrix metalloproteinase-9 (Homo sapiens) (P14780 whole entry): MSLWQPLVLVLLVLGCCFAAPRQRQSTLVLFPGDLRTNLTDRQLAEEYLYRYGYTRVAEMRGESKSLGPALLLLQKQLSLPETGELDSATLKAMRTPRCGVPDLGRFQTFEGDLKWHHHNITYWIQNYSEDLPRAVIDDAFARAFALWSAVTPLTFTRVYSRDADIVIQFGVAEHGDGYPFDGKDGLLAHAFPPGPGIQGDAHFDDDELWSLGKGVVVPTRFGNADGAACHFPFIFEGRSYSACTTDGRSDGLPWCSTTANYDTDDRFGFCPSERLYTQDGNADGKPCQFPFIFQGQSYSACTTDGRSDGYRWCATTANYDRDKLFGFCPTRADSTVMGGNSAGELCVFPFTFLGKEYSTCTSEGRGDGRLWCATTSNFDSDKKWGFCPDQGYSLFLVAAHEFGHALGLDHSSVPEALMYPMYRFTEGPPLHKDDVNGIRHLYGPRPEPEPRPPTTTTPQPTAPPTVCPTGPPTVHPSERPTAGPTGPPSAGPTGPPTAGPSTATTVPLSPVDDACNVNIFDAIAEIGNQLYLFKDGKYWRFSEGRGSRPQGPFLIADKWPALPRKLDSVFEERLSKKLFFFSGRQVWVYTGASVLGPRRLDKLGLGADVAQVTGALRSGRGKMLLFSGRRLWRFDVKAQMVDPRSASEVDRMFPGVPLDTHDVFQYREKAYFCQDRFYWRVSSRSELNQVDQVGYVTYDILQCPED

[5] = target: Collagenase 3 (Homo sapiens) (UniProt P45452); assay: MMP-13 (H) Eurofins SafetyScreen44 (BI); settings: Compound concentration 10.0 uM
[6] = target: D(1A) dopamine receptor (Homo sapiens) (UniProt P21728); assay: D1/H Eurofins SafetyScreen44 (BI); settings: filed as antagonist, Compound concentration 10.0 uM
Chymase = Chymase (Homo sapiens, UniProt P23946); assay: Angiotensin II formation by CMA1 in human plasma; type: cell-free
[7] = target: Cathepsin G (Homo sapiens) (UniProt P08311); assay: CATHEPSG(H) Eurofins SafetyScreen44 (BI); settings: Compound concentration 10.0 uM
[8] = target: Angiotensin-converting enzyme (Homo sapiens) (UniProt P12821); assay: ACE(HU) Eurofins SafetyScreen44 (BI); settings: Compound concentration 10.0 uM
[9] = target: Histamine H1 receptor (Homo sapiens) (UniProt P35367); settings: Compound concentration 10.0 uM
Trypsin (Homo sapiens) = Trypsin (Homo sapiens) (UniProt P07477+P07478+P35030); assay: TRYPSIN_CE Eurofins SafetyScreen44 (BI); type: protein assay; settings: Compound concentration 10.0 uM
[10] = target: Muscarinic acetylcholine receptor M4 (Homo sapiens) (UniProt P08173); settings: Compound concentration 10.0 uM
[11] = target: Proteinase-activated receptor 1 (Homo sapiens) (UniProt P25116); assay: PAR1(H)ANTAG Eurofins SafetyScreen44 (BI); settings: filed as antagonist, Compound concentration 10.0 uM
[12] = target: GABA-A receptor; anion channel (Rattus norvegicus) (UniProt O09028+P15431+P18506+P18508+P19969+P20236+P23574+P23576+P28471+P28473+P30191+P62813+P63079+P63138+Q91ZM7+Q9ES14); assay: BZD/CENTR/R Eurofins SafetyScreen44 (BI); type: protein-complex assay; settings: Compound concentration 10.0 uM
[13] = target: MAO-A (amine oxidase [flavin-containing] A) (Rattus norvegicus, UniProt P21396); assay: MAO-A_ANTAG Eurofins SafetyScreen44 (BI); parameters: mode of action antagonist; scale not given: the % may be the effect or the level left; settings: compound concentration 10 uM, read-out: % Ctrl
Rattus norvegicus = organism: Rattus norvegicus; assay: NA+/SITE2/R Eurofins SafetyScreen44 (BI); settings: Compound concentration 10.0 uM
[14] = target: Histamine H2 receptor (Homo sapiens) (UniProt P25021); settings: Compound concentration 10.0 uM
Sequence of Histamine H2 receptor (Homo sapiens) (P25021 whole entry): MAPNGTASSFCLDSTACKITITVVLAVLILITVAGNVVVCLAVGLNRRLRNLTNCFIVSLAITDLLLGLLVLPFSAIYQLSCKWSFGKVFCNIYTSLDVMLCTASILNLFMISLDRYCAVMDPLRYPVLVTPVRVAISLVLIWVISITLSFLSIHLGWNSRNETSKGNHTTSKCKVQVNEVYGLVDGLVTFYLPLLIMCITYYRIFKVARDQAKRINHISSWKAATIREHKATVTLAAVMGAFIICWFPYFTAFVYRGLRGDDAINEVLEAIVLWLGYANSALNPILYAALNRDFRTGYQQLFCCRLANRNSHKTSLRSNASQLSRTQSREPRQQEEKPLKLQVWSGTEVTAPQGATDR

[15] = target: D(1B) dopamine receptor (Homo sapiens) (UniProt P21918); settings: Compound concentration 10.0 uM
[16] = target: Beta-3 adrenergic receptor (Homo sapiens) (UniProt P13945); settings: Compound concentration 10.0 uM
[17] = target: Endothelin-1 receptor (Homo sapiens) (UniProt P25101); assay: ETA/H Eurofins SafetyScreen44 (BI); settings: Compound concentration 10.0 uM
[18] = target: 5-hydroxytryptamine receptor 2B (Homo sapiens) (UniProt P41595); settings: Compound concentration 10.0 uM
Sequence of 5-hydroxytryptamine receptor 2B (Homo sapiens) (P41595 whole entry): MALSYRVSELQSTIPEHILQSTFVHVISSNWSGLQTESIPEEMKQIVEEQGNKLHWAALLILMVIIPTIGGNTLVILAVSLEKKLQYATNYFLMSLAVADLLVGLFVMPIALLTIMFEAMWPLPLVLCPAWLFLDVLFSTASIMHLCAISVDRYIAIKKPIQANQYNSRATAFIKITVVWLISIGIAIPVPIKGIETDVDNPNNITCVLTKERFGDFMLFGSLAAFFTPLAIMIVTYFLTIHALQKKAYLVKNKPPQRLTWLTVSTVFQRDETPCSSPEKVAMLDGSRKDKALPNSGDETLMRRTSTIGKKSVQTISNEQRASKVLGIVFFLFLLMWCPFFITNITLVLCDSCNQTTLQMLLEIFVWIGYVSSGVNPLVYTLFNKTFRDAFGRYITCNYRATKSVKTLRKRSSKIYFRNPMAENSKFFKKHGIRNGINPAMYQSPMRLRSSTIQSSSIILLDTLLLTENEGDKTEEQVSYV

[19] = target: Muscarinic acetylcholine receptor M3 (Homo sapiens) (UniProt P20309); assay: M3/H Eurofins SafetyScreen44 (BI); settings: Compound concentration 10.0 uM
[20] = target: Interstitial collagenase (Homo sapiens) (UniProt P03956); assay: MMP1 (H) Eurofins SafetyScreen44 (BI); settings: Compound concentration 10.0 uM
[21] = target: T1, Kappa-type opioid receptor (Homo sapiens, UniProt P41145); assay: KAPPA(KOP)_HU Eurofins SafetyScreen44 (BI); settings: Compound concentration 10.0 uM
T1 sequence (P41145 whole entry): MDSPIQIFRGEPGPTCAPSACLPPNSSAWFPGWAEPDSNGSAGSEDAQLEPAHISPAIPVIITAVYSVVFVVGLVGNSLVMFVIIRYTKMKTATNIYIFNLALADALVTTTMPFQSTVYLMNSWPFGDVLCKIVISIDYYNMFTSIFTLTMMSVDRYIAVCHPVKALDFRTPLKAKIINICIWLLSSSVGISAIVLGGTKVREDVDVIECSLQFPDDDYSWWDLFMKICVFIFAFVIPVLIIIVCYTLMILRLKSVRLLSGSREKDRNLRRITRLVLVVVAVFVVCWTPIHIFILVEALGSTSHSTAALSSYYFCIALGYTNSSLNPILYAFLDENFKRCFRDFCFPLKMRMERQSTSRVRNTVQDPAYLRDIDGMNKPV

[22] = target: 5-hydroxytryptamine receptor 2C (Homo sapiens) (UniProt P28335); settings: Compound concentration 10.0 uM
Caspase-7 (Homo sapiens) = Caspase-7 (Homo sapiens) (UniProt P55210); assay: CASPASE-7(H) Eurofins SafetyScreen44 (BI); settings: Compound concentration 10.0 uM
Sequence of Caspase-7 (Homo sapiens) (P55210 24-198 limits assumed): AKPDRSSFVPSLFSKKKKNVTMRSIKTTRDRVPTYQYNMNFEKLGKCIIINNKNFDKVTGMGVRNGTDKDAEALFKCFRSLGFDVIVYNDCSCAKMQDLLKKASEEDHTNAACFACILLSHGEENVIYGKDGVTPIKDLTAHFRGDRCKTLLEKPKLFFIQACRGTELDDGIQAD
Sequence of Caspase-7 (Homo sapiens) (P55210 207-303 limits assumed): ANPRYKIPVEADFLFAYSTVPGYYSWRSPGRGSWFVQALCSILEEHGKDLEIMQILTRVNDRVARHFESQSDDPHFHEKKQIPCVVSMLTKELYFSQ

[23] = target: 5-hydroxytryptamine receptor 5A (Homo sapiens) (UniProt P47898); settings: Compound concentration 10.0 uM
[24] = target: T1, Kappa-type opioid receptor; assay: GPCRScan assay: inhibition of KOR; parameters: radioligand conc. used [nm] 0.6 – 1.2, parental cells stable HEK
[25] = target: Muscarinic acetylcholine receptor M1 (Homo sapiens) (UniProt P11229); settings: Compound concentration 10.0 uM
[26] = target: Histamine H2 receptor (Homo sapiens) (UniProt P25021); assay: H2/APT/HS Eurofins SafetyScreen44 (BI); settings: filed as antagonist, Compound concentration 10.0 uM
Chymase (Homo sapiens) = Chymase (Homo sapiens) (UniProt P23946); settings: Compound concentration 10.0 uM
Caspase-3 (Homo sapiens) = Caspase-3 (Homo sapiens) (UniProt P42574); assay: CASPASE-3 Eurofins SafetyScreen44 (BI); settings: Compound concentration 10.0 uM
[27] = target: Matrix metalloproteinase-14 (Homo sapiens) (UniProt P50281); assay: MT1-MMP(H)(MMP-14) Eurofins SafetyScreen44 (BI); settings: Compound concentration 10.0 uM
[28] = target: 5-hydroxytryptamine receptor 1E (Homo sapiens) (UniProt P28566); settings: Compound concentration 10.0 uM
Tryptase (Homo sapiens) = Tryptase (Homo sapiens) (UniProt Q9BZJ3+Q15661+Q9NRR2); assay: TRYPTASE_H Eurofins SafetyScreen44 (BI); type: protein assay; settings: Compound concentration 10.0 uM
[29] = target: Sigma intracellular receptor 2 (Homo sapiens) (UniProt Q5BJF2); settings: Compound concentration 10.0 uM
Sequence of Sigma intracellular receptor 2 (Homo sapiens) (Q5BJF2 whole entry): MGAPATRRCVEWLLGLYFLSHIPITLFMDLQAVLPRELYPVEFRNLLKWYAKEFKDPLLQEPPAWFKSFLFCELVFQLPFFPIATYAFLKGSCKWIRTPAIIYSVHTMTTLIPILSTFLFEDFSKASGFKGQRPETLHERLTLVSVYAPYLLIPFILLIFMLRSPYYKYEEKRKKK

[30] = target: 5-hydroxytryptamine receptor 1B (Homo sapiens) (UniProt P28222); assay: 5HT1B(H) Eurofins SafetyScreen44 (BI); settings: filed as antagonist, Compound concentration 10.0 uM
[31] = target: Neutrophil elastase (Homo sapiens) (UniProt P08246); assay: ELASTASE(H) Eurofins SafetyScreen44 (BI); settings: Compound concentration 10.0 uM
[32] = target: 72 kDa type IV collagenase (Homo sapiens) (UniProt P08253); assay: MMP-2 (H) Eurofins SafetyScreen44 (BI); settings: Compound concentration 10.0 uM
[33] = target: 5-hydroxytryptamine receptor 1D (Homo sapiens, UniProt P28221); assay: GPCRScan assay: inhibition of 5-HT1D; parameters: radioligand conc. used [nm] 1.0 – 2.0, parental cells HEKT
Sequence of 5-hydroxytryptamine receptor 1D (P28221 whole entry): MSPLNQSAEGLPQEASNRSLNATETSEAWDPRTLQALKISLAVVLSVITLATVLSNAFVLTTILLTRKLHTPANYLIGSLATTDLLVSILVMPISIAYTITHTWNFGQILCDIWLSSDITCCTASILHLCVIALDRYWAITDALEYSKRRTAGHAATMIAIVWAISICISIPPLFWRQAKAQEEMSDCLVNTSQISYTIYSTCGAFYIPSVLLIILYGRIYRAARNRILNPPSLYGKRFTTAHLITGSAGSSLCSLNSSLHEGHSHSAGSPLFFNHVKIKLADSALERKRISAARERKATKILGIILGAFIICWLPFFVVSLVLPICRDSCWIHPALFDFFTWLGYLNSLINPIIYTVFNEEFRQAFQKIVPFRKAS

[34] = target: Sodium-dependent dopamine transporter (Homo sapiens) (UniProt Q01959); assay: DATRANS/HUM Eurofins SafetyScreen44 (BI); settings: Compound concentration 10.0 uM
[35] = target: Vasopressin V1a receptor (Homo sapiens) (UniProt P37288); assay: V1A/HUM Eurofins SafetyScreen44 (BI); settings: Compound concentration 10.0 uM
[36] = target: Histamine H4 receptor (Homo sapiens) (UniProt Q9H3N8); settings: Compound concentration 10.0 uM
[37] = target: Serotonin 3 (5-HT3) receptor (Homo sapiens) (UniProt P46098+A5X5Y0+O95264+Q70Z44+Q8WXA8); assay: 5HT3/H Eurofins SafetyScreen44 (BI); type: protein-complex assay; settings: Compound concentration 10.0 uM

Sequence of Caspase-1 (Homo sapiens) (P29466 120-297 limits assumed): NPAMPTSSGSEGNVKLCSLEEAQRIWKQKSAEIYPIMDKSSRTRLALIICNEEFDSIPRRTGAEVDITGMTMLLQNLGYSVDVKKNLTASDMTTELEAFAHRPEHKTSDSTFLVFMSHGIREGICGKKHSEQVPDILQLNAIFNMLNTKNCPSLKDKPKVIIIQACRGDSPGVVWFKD
Sequence of Caspase-1 (Homo sapiens) (P29466 317-404 limits assumed): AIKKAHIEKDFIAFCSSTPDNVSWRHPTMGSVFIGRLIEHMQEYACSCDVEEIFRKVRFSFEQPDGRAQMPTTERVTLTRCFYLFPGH

Compound `CC[C@H](CC(=O)O)n1c(=O)c2ncccc2n(Cc2cn(C)c3cc(C)cc(C)c23)c1=O` [BI-1942] has a residual activity (Caspase-1 (Homo sapiens)) of 103%, a residual activity [1] of 104% and a residual activity [2] of 99%. It also gave a residual activity [3] of 82%, a residual activity [4] of 124% and a residual activity [5] of 109%. The residual activity [6] was 96%, the IC50 (Chymase) was 0.198 µM (active) and the residual activity [7] was -2%. It also gave a residual activity [8] of 127%, an inhibition [9] of 14.1% and a residual activity (Trypsin (Homo sapiens)) of 108%. For the same compound, the inhibition [10] was 9.09%, the residual activity [11] was 120% and the residual activity [12] was 129%. The activity at 10 µM [13] was 86% (not active), the residual activity (Rattus norvegicus) was 97% and the inhibition [14] was -4.71%. For the same compound, the inhibition [15] was 22.2%, the inhibition [16] was -6.54% and the residual activity [17] was 106%. The inhibition [18] was 5.53%, the residual activity [19] was 98% and the residual activity [20] was 97%. For the same compound, the residual activity [21] was 89%, the inhibition [22] was 1.02% and the residual activity (Caspase-7 (Homo sapiens)) was 101%. It also gave an inhibition [23] of 5.71%, a Ki ([24]; read-out: Ki) of 4.95 µM and a Ki ([24]; read-out: pKi (converted)) of 4.79 µM. It also gave an inhibition [25] of 8.69%, a residual activity [26] of 114% and a residual activity (Chymase (Homo sapiens)) of -1%. The residual activity (Caspase-3 (Homo sapiens)) was 97%, the residual activity [27] was 134% and the inhibition [28] was -9.73%. It also gave a residual activity (Tryptase (Homo sapiens)) of 102%, an inhibition [29] of -9.5% and a residual activity [30] of 86%. For the same compound, the residual activity [31] was 101%, the residual activity [32] was 103% and the Ki [33] was 1.13 µM. It also gave a residual activity [34] of 101%, a residual activity [35] of 101% and an inhibition [36] of -5.56%. For the same compound, the residual activity [37] was 97%.
